Test results reported in the supplement of paper PMC9663587.

Assays:
Assay in all cases: GR value, 72 h; higher = faster growth (1 = untreated, <0 = killing);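 note: breast cancer and non-malignant breast epithelial lines, nine half-log doses, viable cells counted by Hoechst and LIVE/DEAD dye imaging versus time-zero plates and DMSO controls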
[1] = compound: CCc1cnn2c(NCc3ccc[n+]([O-])c3)cc(N3CCCC[C@H]3CCO)nc12
THZ1 = compound: CN(C)C/C=C/C(=O)Nc1ccc(C(=O)Nc2cccc(Nc3ncc(Cl)c(-c4c[nH]c5ccccc45)n3)c2)cc1 [THZ1]
BSJ-03-123 = compound: CC(=O)c1c(C)c2cnc(Nc3ccc(N4CCN(CCOCCOCCOCCNC(=O)COc5cccc6c5C(=O)N(C5CCC(=O)NC5=O)C6=O)CC4)cn3)nc2n(C2CCCC2)c1=O [BSJ-03-123]
[2] = compound: CCN1CCN(Cc2ccc(Nc3ncc(F)c(-c4cc(F)c5nc(C)n(C(C)C)c5c4)n3)nc2)CC1
Flavopiridol = compound: CN1CC[C@H](c2c(O)cc(O)c3c(=O)cc(-c4ccccc4Cl)oc23)[C@H](O)C1 [Flavopiridol]
LEE011/Ribociclib = compound: CN(C)C(=O)c1cc2cnc(Nc3ccc(N4CCNCC4)cn3)nc2n1C1CCCC1 [LEE011/Ribociclib]

What does the source list for UACC893?
GR value ([1]; 0.0001 µM): 0.963 GR; GR value ([1]; 0.0003162 µM): 0.894 GR; GR value ([1]; 0.001 µM): 1 GR; GR value ([1]; 0.003162 µM): 0.997 GR; GR value ([1]; 0.01 µM): 0.865 GR; GR value ([1]; 0.03162 µM): -0.169 GR; GR value ([1]; 0.1 µM): -0.503 GR; GR value ([1]; 0.3162 µM): -0.612 GR; GR value ([1]; 1 µM): -0.649 GR; GR value (THZ1; 0.0001 µM): 0.991 GR; GR value (THZ1; 0.0003162 µM): 1.12 GR; GR value (THZ1; 0.001 µM): 1.07 GR; GR value (THZ1; 0.003162 µM): 0.882 GR; GR value (THZ1; 0.01 µM): 0.669 GR; GR value (THZ1; 0.03162 µM): 0.149 GR; GR value (THZ1; 0.1 µM): -0.241 GR; GR value (THZ1; 0.3162 µM): -0.397 GR; GR value (THZ1; 1 µM): -0.517 GR; GR value (BSJ-03-123; 0.001 µM): 0.933 GR; GR value (BSJ-03-123; 0.003162 µM): 0.792 GR; GR value (BSJ-03-123; 0.01 µM): 0.726 GR; GR value (BSJ-03-123; 0.03162 µM): 0.878 GR; GR value (BSJ-03-123; 0.1 µM): 0.644 GR; GR value (BSJ-03-123; 0.3162 µM): 0.502 GR; GR value (BSJ-03-123; 1 µM): 0.538 GR; GR value (BSJ-03-123; 3.162 µM): 0.498 GR; GR value (BSJ-03-123; 10 µM): 0.283 GR; GR value ([2]; 0.001 µM): 0.682 GR; GR value ([2]; 0.003162 µM): 0.508 GR; GR value ([2]; 0.01 µM): 0.42 GR; GR value ([2]; 0.03162 µM): 0.344 GR; GR value ([2]; 0.1 µM): 0.305 GR; GR value ([2]; 0.3162 µM): 0.272 GR; GR value ([2]; 1 µM): 0.262 GR; GR value ([2]; 3.162 µM): 0.241 GR; GR value ([2]; 10 µM): -0.088 GR; GR value (Flavopiridol; 0.0001 µM): 1.02 GR; GR value (Flavopiridol; 0.0003162 µM): 0.977 GR; GR value (Flavopiridol; 0.001 µM): 0.945 GR; GR value (Flavopiridol; 0.003162 µM): 0.821 GR; GR value (Flavopiridol; 0.01 µM): 0.866 GR; GR value (Flavopiridol; 0.03162 µM): 0.822 GR; GR value (Flavopiridol; 0.1 µM): 0.609 GR; GR value (Flavopiridol; 0.3162 µM): 0.0303 GR; GR value (Flavopiridol; 1 µM): -0.465 GR; GR value (LEE011/Ribociclib; 0.001 µM): 0.564 GR; GR value (LEE011/Ribociclib; 0.003162 µM): 0.501 GR; GR value (LEE011/Ribociclib; 0.01 µM): 0.497 GR; GR value (LEE011/Ribociclib; 0.03162 µM): 0.461 GR; GR value (LEE011/Ribociclib; 0.1 µM): 0.494 GR; GR value (LEE011/Ribociclib; 0.3162 µM): 0.422 GR; GR value (LEE011/Ribociclib; 1 µM): 0.473 GR; GR value (LEE011/Ribociclib; 3.162 µM): 0.48 GR; GR value (LEE011/Ribociclib; 10 µM): 0.484 GR
